From patent publication US6660741B2, “Asymmetric synthesis of (S,S,R)-(-)-actinonin and its analogs and uses therefor” (Sloan-Kettering Institute for Cancer Research, priority 2001, dated 2003)
Read-outs that look alike come from different tables or passages of the source. One block for each compound: values may come before it.

Tests used:
Assay type in all cases: cell-based
[1] = tested on: HL60 (acute myeloid leukemia, CD13 positive) cells; assay: Inhibition of tritiated thymidine incorporation, 5 day, HL60; conditions: HL60, 5 days
Method: (§1) Actinonin was purchased from Sigma (St. Louis, Mo.). Biotinylated-Actinonin and all analogs were synthesized. Actinonin stock solution was 5 mg/ml in 10% ethanol. Biotinylated-actinonin and all other analogs were diluted in 10% DMSO to give stock solutions in the range of 1-20 mg/ml.
(§2) Daudi (B lineage Burkitt's lymphoma, CD13 negative) and HL60 (acute myeloid leukemia, CD13 positive) cells were maintained in culture using RPMI 1640 supplemented with 10% heat-inactivated FBS (Omega Scientific, Inc., Tarzana, Calif.) and 1% L-glutamine (Gibco/Invitrogen, Carlsbad, Calif.) at 37° C. in a humidified atmosphere of 5% CO2. Cell viability was higher than 90%, and cells were free of mycoplasma contamination.
(§3) An aliquot of 200 ul of cells (10,000 cells/well) was washed and incubated at 37° C. in 96-well plates in the presence or absence of actinonin/analogs. Serial dilutions were made in complete media. After 5 days of incubation, 50 ul of 10 uCi/mL tritiated thymidine (PerkinElmer, Boston, Mass.) was added to each well and allowed to incorporate for 5 hours. Plates were frozen at −80° C. overnight and cells were harvested onto filtermats (Wallac, Finland) using a semi-automatic harvester (Skatron, Sterling, Va.). Filtermats were counted in a 1205 Betaplate™ liquid scintillation counter (Wallac, Finland). The reference numbers refer to those analogs disclosed in Example 6. Compounds 35, 42, 48, 52, 53, and 56 are effective at inhibiting cell growth.

[2] = tested on: Daudi (B lineage Burkitt's lymphoma, CD13 negative) cells; assay: Inhibition of tritiated thymidine incorporation, 5 day, Daudi; conditions: 5 days
Method: as §1, §2, §3

Daudi and HL60 cells = assay: Thymidine incorporation, summary statement on cell growth (Daudi and HL60); conditions: summary of Tables 4 and 5
Method: as §1, §2, §3

[3] = Homo sapiens, HL-60, 120 h, read-out: HL60 IC50 (uM), 5 day thymidine incorporation
[4] = Homo sapiens, HL-60, 120 h, read-out: HL60 IC50 (ug/mL), 5 day thymidine incorporation
[5] = Homo sapiens, 120 h, read-out: Daudi IC50 (uM), 5 day thymidine incorporation
[6] = Homo sapiens, 120 h, read-out: Daudi IC50 (ug/mL), 5 day thymidine incorporation

Compound: CC(C)[C@H](NC(=O)[C@H](C)CC(=O)NO)C(=O)N1CCC[C@H]1CO [Compound 48, N4-hydroxy-N1-(1-(2-hydroxymethyl-pyrrolidine-1-carbonyl)-2-methyl-propyl)-2-methyl-succinamide]
IC50 [1, 3]: 29.5 µM
IC50 [1, 4]: 10.5 µg/mL
IC50 [2, 5]: 22.4 µM
IC50 [2, 6]: 8 µg/mL
inhibiting cell growth (Daudi and HL60 cells): effective

Compound: CCCCC[C@H](CC(=O)NO)C(=O)N[C@H](C(=O)N1CCC[C@H]1C(=O)O)C(C)C [Compound 56, N4-hydroxy-N1-(1-(2-carboxy-pyrrolidine-1-carbonyl)-2-methyl-propyl)-2-pentyl-succinamide]
IC50 [1, 3]: > 251 µM
IC50 [1, 4]: > 100 µg/mL
IC50 [2, 5]: > 251 µM
IC50 [2, 6]: > 100 µg/mL
inhibiting cell growth (Daudi and HL60 cells): effective

Compound: CCCCC[C@H](CC(=O)NO)C(=O)N[C@@H](Cc1ccccc1)C(=O)N1CCC[C@H]1C [Compound 52]
IC50 [1, 3]: 12.1 µM
IC50 [1, 4]: 5.2 µg/mL
IC50 [2, 5]: 2.7 µM
IC50 [2, 6]: 1.2 µg/mL
inhibiting cell growth (Daudi and HL60 cells): effective

Compound: CCCC[C@@H](C=O)NC(=O)[C@H](CC(C)C)NC(=O)OCc1ccccc1 [Calpeptin, reference compound]
IC50 [1, 3]: 138 µM
IC50 [1, 4]: 50 µg/mL
IC50 [2, 5]: 16.6 µM
IC50 [2, 6]: 6 µg/mL

Compound: CCCCC[C@H](CC(=O)O)C(=O)N[C@@H](Cc1ccccc1)C(=O)N1CCC[C@H]1CO [Compound 54, 3-[1-(2-hydroxymethyl-pyrrolidin-1-yl)-2-benzylcarbamoyl]-octanoic acid]
IC50 [1, 3]: > 239 µM
IC50 [1, 4]: > 100 µg/mL

Compound: CCCCC[C@H](CC(N)=O)C(=O)N[C@H](C(=O)N1CCC[C@H]1C)C(C)C (stereo in doubt) [Compound 51, N1-(1-(2-methyl-pyrrolidine-1-carbonyl)-2-methyl-propyl)-2-pentyl-succinamide]
IC50 [1, 3]: 19.5 µM
IC50 [1, 4]: 6.9 µg/mL
IC50 [2, 5]: 18.7 µM
IC50 [2, 6]: 6.6 µg/mL

Compound: CCCCC[C@H](CC(=O)NO)C(=O)N[C@H](C(=O)N1CCC[C@H]1C(=O)OC)C(C)C [Compound 55]
IC50 [1, 3]: 6.7 µM
IC50 [1, 4]: 2.77 µg/mL
IC50 [2, 5]: 0.97 µM
IC50 [2, 6]: 0.402 µg/mL

Compound: CCCCC[C@H](CC(=O)NO)C(=O)N[C@@H](CC(C)C)C(=O)N1CCC[C@H]1CO [Compound 35, N4-hydroxy-N1-(1-(2-hydroxymethyl-pyrrolidine-1-carbonyl)-3-methyl-butyl)-2-pentyl-succinamide]
IC50 [1, 3]: 17.7 µM
IC50 [1, 4]: 7.1 µg/mL
IC50 [2, 5]: 14.1 µM
IC50 [2, 6]: 5.7 µg/mL
inhibiting cell growth (Daudi and HL60 cells): effective

Compound: CCCCC[C@H](CC(N)=O)C(=O)N[C@@H](CC(C)C)C(=O)N1CCC[C@H]1CO [Compound 49, N1-(1-(2-hydroxymethyl-pyrrolidine-1-carbonyl)-3-methyl-butyl)-2-pentyl-succinamide]
IC50 [1, 3]: > 130 µM
IC50 [1, 4]: > 50 µg/mL
IC50 [2, 5]: > 130 µM
IC50 [2, 6]: > 50 µg/mL

Compound: CCCCC[C@H](CC(=O)NO)C(=O)N[C@@H](Cc1ccccc1)C(=O)N1CCC[C@H]1CO [Compound 42, N1-(1-benzyl-2-(2-hydroxymethyl-pyrrolidin-1-yl)-2-oxo-ethyl)-N4-hydroxy-2-pentyl-succinamide]
IC50 [1, 3]: 15.8 µM
IC50 [1, 4]: 7.1 µg/mL
IC50 [2, 5]: 12.9 µM
IC50 [2, 6]: 5.8 µg/mL
inhibiting cell growth (Daudi and HL60 cells): effective

Compound: CCCCC[C@H](CC(=O)NCC)C(=O)N[C@@H](Cc1ccccc1)C(=O)N1CCC[C@H]1CO [Compound 58]
IC50 [1, 3]: > 225 µM
IC50 [1, 4]: > 100 µg/mL

Compound: CCCCC[C@H](CC(=O)N(CC)CC)C(=O)N[C@@H](Cc1ccccc1)C(=O)N1CCC[C@H]1CO [Compound 57]
IC50 [1, 3]: > 211 µM
IC50 [1, 4]: > 100 µg/mL

Compound: CCCCC[C@H](CC(=O)NO)C(=O)N[C@H](C(=O)N1CCC[C@H]1CN)C(C)C [Compound 53, N4-hydroxy-N1-(1-(2-methylamine-pyrrolidine-1-carbonyl)-2-methyl-propyl)-2-pentyl-succinamide]
IC50 [1, 3]: 26 µM
IC50 [1, 4]: 10 µg/mL
IC50 [2, 5]: 18.2 µM
IC50 [2, 6]: 7 µg/mL
inhibiting cell growth (Daudi and HL60 cells): effective

Now from value to compound:

IC50 [1, 3]: > 224 µM
IC50 [1, 4]: > 100 µg/mL
Compound: CCCCC[C@H](CC(=O)NOC)C(=O)N[C@@H](Cc1ccccc1)C(=O)N1CCC[C@H]1CO [Compound 63]

IC50 [1, 3]: > 176 µM
IC50 [1, 4]: > 100 µg/mL
Compound: CCCCC[C@H](CC(=O)NCc1ccc(OC)cc1OC)C(=O)N[C@@H](Cc1ccccc1)C(=O)N1CCC[C@H]1CO [Compound 59]

IC50 [1, 3]: > 181 µM
IC50 [1, 4]: > 100 µg/mL
Compound: CCCCC[C@H](CC(=O)NCc1ccc([N+](=O)[O-])cc1)C(=O)N[C@@H](Cc1ccccc1)C(=O)N1CCC[C@H]1CO [Compound 61]

IC50 [1, 3]: > 217 µM
IC50 [1, 4]: > 100 µg/mL
Compound: CCCCC[C@H](CC(=O)N(C)OC)C(=O)N[C@@H](Cc1ccccc1)C(=O)N1CCC[C@H]1CO [Compound 65]

IC50 [1, 3]: > 200 µM
IC50 [1, 4]: > 100 µg/mL
Compound: CCCCC[C@H](CC(=O)N1CCN(C)CC1)C(=O)N[C@@H](Cc1ccccc1)C(=O)N1CCC[C@H]1CO [Compound 62, 2-[2-(4-methyl-piperazin-1-yl)-2-oxo-ethyl]-heptanoic acid [1-benzyl-2-(2-hydroxymethyl-pyrrolidin-1-yl)-2-oxo-ethyl]-amide]

IC50 [1, 3]: > 206 µM
IC50 [1, 4]: > 100 µg/mL
Compound: CCCCC[C@H](CC(=O)N1CCCCC1)C(=O)N[C@@H](Cc1ccccc1)C(=O)N1CCC[C@H]1CO [Compound 64]

IC50 [1, 3]: 196 µM
IC50 [1, 4]: 90 µg/mL
Compound: CCCCC[C@H](CC(=O)NN(C)C)C(=O)N[C@@H](Cc1ccccc1)C(=O)N1CCC[C@H]1CO [Compound 60, 2-(N′,N′-dimethyl-hydrazinocarbonylmethyl)-heptanoic acid [1-benzyl-2-(2-hydroxymethyl-pyrrolidin-1-yl)-2-oxo-ethyl]-amide]

HL60 IC50 (ug/mL), 5 day thymidine incorporation [1]: >100 µg/mL
IC50 ([1]; read-out: HL60 IC50 (uM), 5 day thymidine incorporation): > 395 µM
Daudi IC50 (ug/mL), 5 day thymidine incorporation [2]: >100 µg/mL
IC50 ([2]; read-out: Daudi IC50 (uM), 5 day thymidine incorporation): > 395 µM
Compound: O=C(O)CNC(=O)C(CS)Cc1ccccc1 (racemic) [DL-Thiorphan, reference compound]
